Experimental data reported in patent US9957234B2, “Polymorphs of Ivacaftor, process for its preparation and pharmaceutical composition thereof” (Laurus Labs Limited, priority 2014, dated 2018).
Where two headings read alike, the source gives them in different places.

Tests used:
[1] = Saturation solubility studies in various mediums; format: physicochemical
Method: Saturation solubility studies were conducted in various mediums for ivacaftor polymorph Form-L2 and Amorphous form and the data is given in Table III.

[2] = Chemical and polymorphic stability study of Ivacaftor Form-L2 on storage (HPLC, XRD); format: physicochemical
Method: Ivacaftor Form L2 is packed in a transparent Low density polyethylene (LDPE) bag with a strip seal, which is again kept in a second transparent low density polyethylene bag with strip seal. The LDPE bag is kept in to a triple laminated sunlight barrier with heat seal followed by in a high density polyethylene container and well closed. The ivacaftor was analyzed using High Performance Liquid Chromatography (“HPLC”) with the conditions are tabulated below: [table]

[3] = stored at 25 ± 2° C./60 ± 5% RH, 1 month
[4] = stored at 25 ± 2° C./60 ± 5% RH, 3 month
[5] = stored at 25 ± 2° C./60 ± 5% RH, Initial
[6] = stored at 40 ± 2° C./75 ± 5% RH, 1 month
[7] = stored at 40 ± 2° C./75 ± 5% RH, 3 month
[8] = stored at 40 ± 2° C./75 ± 5% RH, Initial

CC(C)(C)c1cc(C(C)(C)C)c(NC(=O)c2c[nH]c3ccccc3c2=O)cc1O [Amorphous form, N-(2,4-di-tert-butyl-5-hydroxyphenyl)-1,4-dihydro-4-oxoquinoline-3-carboxamide, reference compound]
solubility ([1]; 0.001N HCl + 0.7% SLS, pH 3.12): 230 µg/mL | solubility ([1]; 0.01N HCl + 0.7% SLS, pH 2.12): 180 µg/mL | solubility ([1]; 50 mM Phosphate buffer + 0.7% SLS, pH 4.60): 190 µg/mL | solubility ([1]; 0.1N HCl + 0.7% SLS, pH 1.10): 120 µg/mL | solubility ([1]; pH 4.5 AB + 0.7% SLS, pH 4.52): 170 µg/mL | solubility ([1]; pH 5.5 PB + 0.7% SLS, pH 5.53): 180 µg/mL | solubility ([1]; pH 6.8 PB + 0.7% SLS, pH 6.80): 180 µg/mL

CC(C)(C)c1cc(C(C)(C)C)c(NC(=O)c2c[nH]c3ccccc3c2=O)cc1O [Ivacaftor Form-L2, N-(2,4-di-tert-butyl-5-hydroxyphenyl)-1,4-dihydro-4-oxoquinoline-3-carboxamide]
Polymorphic and chemical identity on storage ([2]; different storage condition (25° C./60% RH and 40° C./75% RH)): retained the same polymorphic and chemical identity at least up to three months | Any major unknown impurity [2, 3]: 0.02 % by HPLC | Description [2, 3]: off-white | Solid form by XRD [2, 3]: Complies | Total impurity [2, 3]: 0.02 % by HPLC | Any major unknown impurity [2, 4]: 0.02 % by HPLC | Description [2, 4]: off-white | Solid form by XRD [2, 4]: Complies | Total impurity [2, 4]: 0.02 % by HPLC | Any major unknown impurity [2, 5]: 0.02 % by HPLC | Description [2, 5]: off-white | Solid form by XRD [2, 5]: Complies | Total impurity [2, 5]: 0.03 % by HPLC | Quinolone acid (Imp-3) ([2]; stored at 25 ± 2° C./60 ± 5% RH, Initial, LOD 0.006%): 0.01 % by HPLC | Any major unknown impurity [2, 6]: 0.01 % by HPLC | Description [2, 6]: off-white | Solid form by XRD [2, 6]: Complies | Total impurity [2, 6]: 0.03 % by HPLC | Any major unknown impurity [2, 7]: 0.01 % by HPLC | Description [2, 7]: off-white | Solid form by XRD [2, 7]: Complies | Total impurity [2, 7]: 0.03 % by HPLC | Any major unknown impurity [2, 8]: 0.02 % by HPLC | Description [2, 8]: off-white | Impurity at RRT 0.59 [2, 8]: 0.01 % by HPLC | Solid form by XRD [2, 8]: Complies | Total impurity [2, 8]: 0.03 % by HPLC | solubility ([1]; 0.001N HCl + 0.7% SLS, pH 3.12, aqueous with cosolvent or surfactant or cyclodextrin, thermodynamic from solid, 0.001N HCl + 0.7% SLS, pH 3.12, read-out: Solubility): 240 µg/mL | solubility ([1]; 0.01N HCl + 0.7% SLS, pH 2.12, aqueous with cosolvent or surfactant or cyclodextrin, thermodynamic from solid, 0.01N HCl + 0.7% SLS, pH 2.12, read-out: Solubility): 260 µg/mL | solubility ([1]; 50 mM Phosphate buffer + 0.7% SLS, pH 4.6, aqueous with cosolvent or surfactant or cyclodextrin, thermodynamic from solid, 50 mM Phosphate buffer + 0.7% SLS, pH 4.60, read-out: Solubility): 380 µg/mL | solubility ([1]; 0.1N HCl + 0.7% SLS, pH 1.1, aqueous with cosolvent or surfactant or cyclodextrin, thermodynamic from solid, 0.1N HCl + 0.7% SLS, pH 1.10, read-out: Solubility): 150 µg/mL | solubility ([1]; pH 4.5 AB + 0.7% SLS, pH 4.52, aqueous with cosolvent or surfactant or cyclodextrin, thermodynamic from solid, pH 4.5 AB + 0.7% SLS, pH 4.52, read-out: Solubility): 310 µg/mL | solubility ([1]; pH 5.5 PB + 0.7% SLS, pH 5.53, aqueous with cosolvent or surfactant or cyclodextrin, thermodynamic from solid, pH 5.5 PB + 0.7% SLS, pH 5.53, read-out: Solubility): 260 µg/mL | solubility ([1]; pH 6.8 PB + 0.7% SLS, pH 6.8, aqueous with cosolvent or surfactant or cyclodextrin, thermodynamic from solid, pH 6.8 PB + 0.7% SLS, pH 6.80, read-out: Solubility): 260 µg/mL | Solubility compared to amorphous form ([1]; various mediums, Table III): more solubility when compared to amorphous form
